Measurements as given in article PMC6328587 (Nature Communications, 2019).
Like-named read-outs stand apart in the source and are kept apart here.

How the values were obtained:
Type in all cases: cell-based
p38δ = target: T1, p38δ (Homo sapiens, UniProt O15264); assay: PROTAC-induced p38δ degradation, western blot in MDA-MB-231 cells
T1 construct: endogenous in cells; host or cells: MDA-MB-231
T1 sequence (O15264 1-365): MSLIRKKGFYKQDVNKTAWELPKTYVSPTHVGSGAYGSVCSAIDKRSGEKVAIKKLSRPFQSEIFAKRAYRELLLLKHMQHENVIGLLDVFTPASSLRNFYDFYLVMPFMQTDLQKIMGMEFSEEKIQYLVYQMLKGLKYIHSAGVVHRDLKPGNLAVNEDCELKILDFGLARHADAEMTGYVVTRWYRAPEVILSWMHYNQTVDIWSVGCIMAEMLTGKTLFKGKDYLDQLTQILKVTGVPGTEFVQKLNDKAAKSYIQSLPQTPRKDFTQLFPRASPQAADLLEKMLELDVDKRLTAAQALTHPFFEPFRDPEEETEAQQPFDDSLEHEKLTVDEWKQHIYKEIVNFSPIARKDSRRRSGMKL
Method: MDA-MB-231 and HeLa cells were obtained from the American Type Culture Collection (ATCC), cultured in RPMI-1640 medium (1 × ) and Dulbecco’s modified Eagle’s medium (DMEM; 1 × ), respectively, containing 10% fetal bovine serum and 1% penicillin–streptomycin and grown in a humidified incubator at 37 °C and 5% CO2.
(§1) […] once with ice-cold PBS (1 × ), followed by lysis in buffer containing 25 mM Tris [pH 7.5], 0.25% sodium deoxycholate, 1% Triton X-100, supplemented with 1X protease inhibitor cocktail (Roche), and phosphatase inhibitors (10 mM NaF, 1 mM Na3VO4, and 20 mM β-glycerophosphate), unless otherwise noted. Lysates were spun at 14,000 × g for 10 min at 4 °C and supernatant was evaluated for protein content using a Pierce BCA Protein Assay (ThermoFisher Scientific). In all experiments, 25–50 μg of protein was loaded onto 10% SDS-PAGE gels or 4–20% Criterion TGX precast gradient gels (Bio-Rad), transferred to nitrocellulose membranes, and probed with the specified antibodies overnight at 4 °C in 1X TBS-Tween (Tris-buffered saline plus 0.02% Tween 20) containing 5% non-fat milk. Immunoblots were visualized using a Bio-Rad ChemiDoc imaging instrument and subsequently processed and quantified using the accompanying Bio-Rad ImageLab software. See Supplementary Figure 8 for uncropped scans of western blots shown in the main text figures.
Western blot data in Figs. 2, 6, and Supplementary Figures 2, 3 were quantified by using the band feature in Image Lab (Bio-Rad). The p38 values were normalized to the α-tubulin signal to account for differences in protein load, and PROTAC-treated normalized values were expressed as a % of the vehicle-treated (no PROTAC) value, which itself was defined as 100% p38 protein level. […] The sigmoidal fit established both the full extent of degradation, or Dmax at the bottom asymptote of the curve, as well as the DC50, which is the inflection point at which 50% of the total degradation observed was reached.

p38β = target: T2, p38β (Homo sapiens, UniProt Q15759); assay: p38β degradation, western blot in MDA-MB-231 cells; conditions: concentrations up to 2.5 µM
T2 construct: endogenous in cells; host or cells: MDA-MB-231
Method: as §1
Supplementary Figure 4 cont.
Supplementary Figure 4. Characterization of M APK fam ily degradation selectivity (related to Figures 1-2). (a) p38 M APK fam ily m em bers (α, β, δ, γ) were aligned using the T-Coffee multiple sequence alignm ent server. […] Note: JNK1 and JNK2 are expressed as two alternatively-spliced form s. […]

FLAG-p38α = target: T3, FLAG-p38α (Homo sapiens, UniProt Q16539); assay: Ubiquitination assay, FLAG-p38α and HA-Ub in HeLa cells; conditions: 500 nM PROTAC, 1 h
T3 construct: expressed in transfected cells; host or cells: HeLa
Method: HeLa cells (2 × 10^6) were seeded into 10 cm dishes and allowed to adhere overnight. On the following day, cells were transfected with 3 µg pcDNA5-FLAG-p38α or pcDNA5-FLAG-p38δ and 1 µg pRK5-HA-Ubiquitin-WT (Addgene plasmid #17608) in Opti-MEM media using Lipofectamine 2000 (Invitrogen). After 6 h, Opti-MEM media were replaced with DMEM (1 × ) and cells were grown for an additional 24 h. After this time, cells were treated with indicated concentrations of either vehicle (DMSO) or PROTAC for the indicated amount of time at 37 °C. Cells were then placed on ice, rinsed twice with ice-cold 1X PBS and lysed in 500 µL modified 1X RIPA buffer (25 mM Tris-HCl pH 7.6, 150 mM NaCl, 1% NP-40, 1% sodium deoxycholate, 0.1% SDS) containing 5 mM 1,10-phenanthroline monohydrate, 10 mM N-ethylmaleimide, 20 µM PR-619, and 1X protease inhibitor cocktail (Roche). Lysates were spun down at 14,000 × g at 4 °C for 20 min and protein content was measured by Pierce BCA Protein Assay (ThermoFisher Scientific). […] Immunoprecipitated protein was eluted off of the beads by heating at 95 °C for 5 min and the supernatant was run on an SDS-PAGE gel and evaluated for the presence of immunoprecipitated FLAG-tagged proteins (anti-FLAG M2, Sigma #F1804), as well as ubiquitinated FLAG-tagged proteins (anti-HA-tag (6E2), CST #2367). […]

[1] = 0.025-5.0 µM survey, biological duplicates, ± one s.d., Supplementary Table 1
[2] = 0.025-5.0 µM survey, ± one s.d., Supplementary Table 1, read-out: Dmax p38δ (maximum percentage of degradation)
[3] = wider dose response 1 nM-100 µM, Supplementary Figure 3, read-out: Dmax p38δ

T2 sequence (Q15759 whole entry): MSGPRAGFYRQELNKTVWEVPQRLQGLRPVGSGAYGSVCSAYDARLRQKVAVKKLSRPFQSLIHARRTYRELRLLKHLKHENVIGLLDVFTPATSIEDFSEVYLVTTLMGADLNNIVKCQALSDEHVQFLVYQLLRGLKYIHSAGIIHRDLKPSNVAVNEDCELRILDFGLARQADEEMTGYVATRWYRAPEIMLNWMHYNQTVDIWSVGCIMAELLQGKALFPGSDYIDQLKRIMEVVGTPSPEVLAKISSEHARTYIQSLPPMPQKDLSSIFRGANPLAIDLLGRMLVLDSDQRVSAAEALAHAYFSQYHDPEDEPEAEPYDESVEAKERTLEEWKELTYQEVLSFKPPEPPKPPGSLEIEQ
T3 sequence (Q16539 whole entry): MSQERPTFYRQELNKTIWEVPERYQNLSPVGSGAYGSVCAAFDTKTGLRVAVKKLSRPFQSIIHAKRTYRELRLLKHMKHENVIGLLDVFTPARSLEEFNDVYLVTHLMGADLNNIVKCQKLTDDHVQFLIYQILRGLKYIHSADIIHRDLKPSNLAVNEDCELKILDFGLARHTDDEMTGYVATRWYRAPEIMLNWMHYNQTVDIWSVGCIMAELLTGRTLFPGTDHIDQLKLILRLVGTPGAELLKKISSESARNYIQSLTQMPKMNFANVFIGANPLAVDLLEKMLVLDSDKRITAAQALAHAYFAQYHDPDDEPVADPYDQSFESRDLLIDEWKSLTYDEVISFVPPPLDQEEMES

| Structure (SMILES) | DC50 (p38δ; [1]) [nM] | Dmax (p38δ; [2]) [%] | Dmax (p38δ; [3]) [%] | p38β degradation (p38β) | ubiquitination of FLAG-p38α (FLAG-p38α) | p38δ downregulation after pre-treatment with 1 µM epoxomicin or 1 µM MLN4924 (p38δ; 250 nM PROTAC, 6 h) | hook effect in p38δ degradation (p38δ; up to 100 µM) | DC50 (p38δ; wider dose response 1 nM-100 µM, Supplementary Figure 3) [nM] |
| --- | --- | --- | --- | --- | --- | --- | --- | --- |
| COc1cc2c(Oc3ccc(NC(=O)C4(C(=O)Nc5ccc(F)cc5)CC4)cc3F)ccnc2cc1OCCCCOCCCCOCC(=O)N[C@H](C(=O)N1C[C@H](O)C[C@H]1C(=O)NCc1ccc(-c2scnc2C)cc1)C(C)(C)C [SJFα] | 1160 ± 2470 | 25.1 ± 22.7 | 18 | does not degrade | substantial, high molecular weight (HMW) poly-Ub conjugation | – | – | – |
| COc1cc2c(Oc3ccc(NC(=O)C4(C(=O)Nc5ccc(F)cc5)CC4)cc3F)ccnc2cc1OCCOCCOCCOc1cc(-c2scnc2C)ccc1CNC(=O)[C@@H]1C[C@@H](O)CN1C(=O)[C@H](C(C)C)N1Cc2ccccc2C1=O [SJFδ] | 79.2 ± 28 | 98.4 ± 6.6 | 99.4 ± 3.31 | does not degrade | this effect was not seen | completely rescued | no hook effect | 46.2 ± 9.85 |
